Columns and labels:
Test in all cases: DiscoverX KinomeScreen kinase selectivity competition binding assay
[1] = biological target: T1, panel of ninety-seven kinases (Homo sapiens, UniProt Q8NI60); conditions: CABC1; read-out: % Ctrl @ 3 μM
T1 construct: purchased DiscoverX; host or cells: T7 phage in E. coli (BL21-derived) for most kinases; HEK-293 for the rest
Experimental: (§1) Atropisomer A-2 has been tested for off-target activity against a panel of ninety-seven kinases distributed across the kinome at a concentration of 3 μM using the DiscoverX KinomeScreen assay. The DiscoverX KinomeScreen assay is a site-directed competition binding assay which measures the binding affinity of a compound to a kinase, by use of a solid supported control compound which can bind or capture the kinases in solution. In the absence of a kinase-inhibitor test compound, all of the kinase will bind to the solid support. If a kinase-inhibitor test compound is added to the assay mix, the amount of kinase binding to the solid support will be reduced, the extent of reduction being dependent on the potency of the test compound as a kinase inhibitor. […] For most assays, kinase-tagged T7 phage strains were grown in parallel in 24-well blocks in an E. coli host derived from the BL21 strain. E. coli were grown to log-phase and infected with T7 phage from a frozen stock (multiplicity of infection=0.4) and incubated with shaking at 32° C. until lysis (90-150 minutes). The lysates were centrifuged (6,000×g) and filtered (0.2 μm) to remove cell debris. The remaining kinases were produced in HEK-293 cells and subsequently tagged with DNA for qPCR detection. Streptavidin-coated magnetic beads were treated with biotinylated small molecule ligands for 30 minutes at room temperature to generate affinity resins for kinase assays. The liganded beads were blocked with excess biotin and washed with blocking buffer (SeaBlock (Pierce), 1% BSA, 0.05% Tween 20, 1 mM DTT) to remove unbound ligand and to reduce non-specific phage binding. […] Test compounds were prepared as 40× stocks in 100% DMSO and directly diluted into the assay. All reactions were performed in polypropylene 384-well plates in a final volume of 0.02 ml. […] The beads were then re-suspended in elution buffer (1×PBS, 0.05% Tween 20, 0.5 μM non-biotinylated affinity ligand) and incubated at room temperature with shaking for 30 minutes. The kinase concentration in the eluates was measured by qPCR. Compounds that bind the kinase active site and directly (sterically) or indirectly (allosterically) prevent kinase binding to the immobilized ligand, will reduce the amount of kinase captured on the solid support. […] The strength of binding of the test molecule to the kinase can be expressed as the percent control (% Ctrl) The compound(s) were screened at 3000 nM concentration, and results for primary screen binding interactions are reported as ‘% Ctrl’, where lower numbers indicate stronger hits in the matrix on the following page(s). [formula] • negative control=DMSO (100% Ctrl) • positive control=control compound (0% Ctrl)

[2] = biological target: T2, panel of ninety-seven kinases (Homo sapiens, UniProt P51812); conditions: RPS6KA3; read-out: % Ctrl @ 3 μM
T2 construct: purchased DiscoverX; host or cells: T7 phage in E. coli (BL21-derived) for most kinases; HEK-293 for the rest
T2 sequence (P51812 whole entry): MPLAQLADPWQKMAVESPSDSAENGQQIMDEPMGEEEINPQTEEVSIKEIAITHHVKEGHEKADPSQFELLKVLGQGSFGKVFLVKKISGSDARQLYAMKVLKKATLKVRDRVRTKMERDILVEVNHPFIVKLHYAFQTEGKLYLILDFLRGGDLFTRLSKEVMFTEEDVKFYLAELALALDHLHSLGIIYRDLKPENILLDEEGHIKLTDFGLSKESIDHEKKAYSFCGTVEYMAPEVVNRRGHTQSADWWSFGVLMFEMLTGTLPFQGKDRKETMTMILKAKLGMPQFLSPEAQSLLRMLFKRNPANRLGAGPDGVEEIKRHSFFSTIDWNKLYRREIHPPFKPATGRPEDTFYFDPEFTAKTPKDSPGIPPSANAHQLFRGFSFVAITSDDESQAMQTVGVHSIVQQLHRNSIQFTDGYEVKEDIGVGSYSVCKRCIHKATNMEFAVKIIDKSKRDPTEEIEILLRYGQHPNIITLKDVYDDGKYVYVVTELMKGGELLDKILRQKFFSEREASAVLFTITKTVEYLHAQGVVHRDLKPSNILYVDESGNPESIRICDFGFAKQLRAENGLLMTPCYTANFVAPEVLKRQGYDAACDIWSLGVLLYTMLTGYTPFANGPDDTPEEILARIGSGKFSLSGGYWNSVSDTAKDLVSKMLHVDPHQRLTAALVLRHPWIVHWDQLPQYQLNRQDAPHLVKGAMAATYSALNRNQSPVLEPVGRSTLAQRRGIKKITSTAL
Experimental: as §1

[3] = biological target: T3, panel of ninety-seven kinases (Homo sapiens, UniProt O14920); conditions: IKBKB; read-out: % Ctrl @ 3 μM
T3 construct: purchased DiscoverX; host or cells: T7 phage in E. coli (BL21-derived) for most kinases; HEK-293 for the rest
Experimental: as §1

[4] = biological target: T4, panel of ninety-seven kinases (Homo sapiens, UniProt P78368); conditions: CSNK1G2; read-out: % Ctrl @ 3 μM
T4 construct: purchased DiscoverX; host or cells: T7 phage in E. coli (BL21-derived) for most kinases; HEK-293 for the rest
Experimental: as §1

[5] = biological target: T5, panel of ninety-seven kinases (Homo sapiens, UniProt P12931); conditions: SRC; read-out: % Ctrl @ 3 μM
T5 construct: purchased DiscoverX; host or cells: T7 phage in E. coli (BL21-derived) for most kinases; HEK-293 for the rest
Experimental: as §1

[6] = biological target: T6, panel of ninety-seven kinases (Homo sapiens, UniProt Q02750); conditions: MAP2K1; read-out: % Ctrl @ 3 μM
T6 construct: purchased DiscoverX; host or cells: T7 phage in E. coli (BL21-derived) for most kinases; HEK-293 for the rest
Experimental: as §1

[7] = biological target: T7, panel of ninety-seven kinases (Homo sapiens, UniProt Q13153); conditions: PAK1; read-out: % Ctrl @ 3 μM
T7 construct: purchased DiscoverX; host or cells: T7 phage in E. coli (BL21-derived) for most kinases; HEK-293 for the rest
Experimental: as §1

[8] = biological target: T8, panel of ninety-seven kinases (Homo sapiens, UniProt P22607); conditions: FGFR3; read-out: % Ctrl @ 3 μM
T8 construct: purchased DiscoverX; host or cells: T7 phage in E. coli (BL21-derived) for most kinases; HEK-293 for the rest
Experimental: as §1

[9] = biological target: T9, panel of ninety-seven kinases (Homo sapiens, UniProt P48736); conditions: PIK3CG; read-out: % Ctrl @ 3 μM
T9 construct: purchased DiscoverX; host or cells: T7 phage in E. coli (BL21-derived) for most kinases; HEK-293 for the rest
T9 sequence (P48736 whole entry): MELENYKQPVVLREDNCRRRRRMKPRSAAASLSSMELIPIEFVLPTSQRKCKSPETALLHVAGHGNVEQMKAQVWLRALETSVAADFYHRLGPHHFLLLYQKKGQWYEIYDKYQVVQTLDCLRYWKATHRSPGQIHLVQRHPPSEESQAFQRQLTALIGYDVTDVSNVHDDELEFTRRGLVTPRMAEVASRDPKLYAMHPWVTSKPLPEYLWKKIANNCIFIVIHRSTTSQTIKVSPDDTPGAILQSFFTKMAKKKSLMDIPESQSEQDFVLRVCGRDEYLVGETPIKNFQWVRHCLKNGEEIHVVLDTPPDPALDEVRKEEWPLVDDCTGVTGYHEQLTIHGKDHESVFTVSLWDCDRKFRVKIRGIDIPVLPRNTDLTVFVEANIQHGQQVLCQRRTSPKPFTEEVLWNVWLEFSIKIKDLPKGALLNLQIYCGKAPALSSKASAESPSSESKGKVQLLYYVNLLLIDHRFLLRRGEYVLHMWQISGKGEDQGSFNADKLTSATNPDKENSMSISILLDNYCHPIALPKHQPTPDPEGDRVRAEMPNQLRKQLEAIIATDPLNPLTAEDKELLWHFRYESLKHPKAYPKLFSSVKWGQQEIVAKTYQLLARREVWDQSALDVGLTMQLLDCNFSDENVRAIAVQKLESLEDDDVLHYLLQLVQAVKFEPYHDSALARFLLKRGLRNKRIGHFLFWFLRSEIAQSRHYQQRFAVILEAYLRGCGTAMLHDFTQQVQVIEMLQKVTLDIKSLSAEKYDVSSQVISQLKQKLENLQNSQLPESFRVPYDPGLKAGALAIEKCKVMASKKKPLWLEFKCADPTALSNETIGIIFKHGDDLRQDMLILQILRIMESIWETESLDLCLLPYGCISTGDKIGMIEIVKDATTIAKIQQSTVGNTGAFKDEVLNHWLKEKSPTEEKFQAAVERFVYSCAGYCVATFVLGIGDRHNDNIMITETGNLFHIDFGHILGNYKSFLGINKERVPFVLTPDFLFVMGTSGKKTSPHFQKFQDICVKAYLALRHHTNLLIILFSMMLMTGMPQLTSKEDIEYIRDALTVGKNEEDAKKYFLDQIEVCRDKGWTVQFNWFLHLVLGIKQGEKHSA
Experimental: as §1

[10] = biological target: T10, panel of ninety-seven kinases (Homo sapiens, UniProt Q86UX6); conditions: STK32C; read-out: % Ctrl @ 3 μM
T10 construct: purchased DiscoverX; host or cells: T7 phage in E. coli (BL21-derived) for most kinases; HEK-293 for the rest
Experimental: as §1

[11] = biological target: T11, panel of ninety-seven kinases (Homo sapiens, UniProt P36897); conditions: TGFBR1; read-out: % Ctrl @ 3 μM
T11 construct: purchased DiscoverX; host or cells: T7 phage in E. coli (BL21-derived) for most kinases; HEK-293 for the rest
T11 sequence (P36897 34-503): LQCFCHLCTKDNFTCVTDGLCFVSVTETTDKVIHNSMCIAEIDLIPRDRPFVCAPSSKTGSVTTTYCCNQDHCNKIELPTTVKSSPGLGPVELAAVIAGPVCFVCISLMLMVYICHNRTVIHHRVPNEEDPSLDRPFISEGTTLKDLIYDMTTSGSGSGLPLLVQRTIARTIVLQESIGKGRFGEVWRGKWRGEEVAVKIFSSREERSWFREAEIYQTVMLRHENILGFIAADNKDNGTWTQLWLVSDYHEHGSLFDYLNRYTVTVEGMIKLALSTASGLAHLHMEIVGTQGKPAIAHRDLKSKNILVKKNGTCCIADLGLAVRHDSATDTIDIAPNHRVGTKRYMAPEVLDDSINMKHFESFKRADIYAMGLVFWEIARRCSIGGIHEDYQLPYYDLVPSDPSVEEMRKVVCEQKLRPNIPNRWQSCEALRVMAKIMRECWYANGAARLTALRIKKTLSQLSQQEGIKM
Experimental: as §1

[12] = biological target: T12, panel of ninety-seven kinases (Homo sapiens, UniProt Q9BUB5); conditions: MKNK1; read-out: % Ctrl @ 3 μM
T12 construct: purchased DiscoverX; host or cells: T7 phage in E. coli (BL21-derived) for most kinases; HEK-293 for the rest
Experimental: as §1

[13] = biological target: T13, panel of ninety-seven kinases (Homo sapiens, UniProt P31751); conditions: AKT2; read-out: % Ctrl @ 3 μM
T13 construct: purchased DiscoverX; host or cells: T7 phage in E. coli (BL21-derived) for most kinases; HEK-293 for the rest
T13 sequence (P31751 whole entry): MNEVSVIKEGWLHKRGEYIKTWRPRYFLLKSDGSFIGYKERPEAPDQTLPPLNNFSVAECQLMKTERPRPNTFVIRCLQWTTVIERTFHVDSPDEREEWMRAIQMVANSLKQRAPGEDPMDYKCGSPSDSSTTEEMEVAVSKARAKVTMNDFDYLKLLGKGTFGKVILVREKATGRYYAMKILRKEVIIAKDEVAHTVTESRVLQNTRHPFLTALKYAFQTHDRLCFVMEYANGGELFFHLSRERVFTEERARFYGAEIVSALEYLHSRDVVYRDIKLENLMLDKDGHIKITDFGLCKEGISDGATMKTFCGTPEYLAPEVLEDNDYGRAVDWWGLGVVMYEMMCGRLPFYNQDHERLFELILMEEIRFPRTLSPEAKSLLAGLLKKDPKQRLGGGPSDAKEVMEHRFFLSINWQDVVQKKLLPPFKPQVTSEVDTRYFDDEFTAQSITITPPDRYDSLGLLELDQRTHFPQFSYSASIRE
Experimental: as §1

[14] = biological target: T14, panel of ninety-seven kinases (Homo sapiens, UniProt Q96GD4); conditions: AURKB; read-out: % Ctrl @ 3 μM
T14 construct: purchased DiscoverX; host or cells: T7 phage in E. coli (BL21-derived) for most kinases; HEK-293 for the rest
Experimental: as §1

[15] = biological target: T15, panel of ninety-seven kinases (Homo sapiens, UniProt Q9UPE1); conditions: SRPK3; read-out: % Ctrl @ 3 μM
T15 construct: purchased DiscoverX; host or cells: T7 phage in E. coli (BL21-derived) for most kinases; HEK-293 for the rest
Experimental: as §1

[16] = biological target: T16, panel of ninety-seven kinases (Homo sapiens, UniProt P49841); conditions: GSK3B; read-out: % Ctrl @ 3 μM
T16 construct: purchased DiscoverX; host or cells: T7 phage in E. coli (BL21-derived) for most kinases; HEK-293 for the rest
Experimental: as §1

[17] = biological target: T17, panel of ninety-seven kinases (Homo sapiens, UniProt O15111); conditions: CHUK; read-out: % Ctrl @ 3 μM
T17 construct: purchased DiscoverX; host or cells: T7 phage in E. coli (BL21-derived) for most kinases; HEK-293 for the rest
T17 sequence (O15111 whole entry): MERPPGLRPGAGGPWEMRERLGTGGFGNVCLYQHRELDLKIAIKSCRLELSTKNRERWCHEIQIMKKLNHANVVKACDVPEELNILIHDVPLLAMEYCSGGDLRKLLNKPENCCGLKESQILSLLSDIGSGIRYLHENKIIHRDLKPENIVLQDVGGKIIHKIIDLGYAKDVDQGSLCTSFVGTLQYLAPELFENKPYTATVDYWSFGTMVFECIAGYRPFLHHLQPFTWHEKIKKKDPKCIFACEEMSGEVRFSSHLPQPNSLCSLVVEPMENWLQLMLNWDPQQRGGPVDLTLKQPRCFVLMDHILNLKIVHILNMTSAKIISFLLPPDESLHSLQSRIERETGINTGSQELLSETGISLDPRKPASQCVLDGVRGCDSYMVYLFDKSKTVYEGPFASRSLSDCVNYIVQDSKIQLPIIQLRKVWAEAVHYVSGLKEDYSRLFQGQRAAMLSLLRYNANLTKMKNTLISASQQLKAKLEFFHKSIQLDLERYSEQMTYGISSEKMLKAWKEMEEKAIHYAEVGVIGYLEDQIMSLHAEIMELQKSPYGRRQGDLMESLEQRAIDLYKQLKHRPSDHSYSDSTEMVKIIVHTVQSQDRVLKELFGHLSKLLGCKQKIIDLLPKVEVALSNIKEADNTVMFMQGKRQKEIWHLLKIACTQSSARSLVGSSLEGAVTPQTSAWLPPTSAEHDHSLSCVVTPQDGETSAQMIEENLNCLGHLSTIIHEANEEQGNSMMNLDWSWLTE
Experimental: as §1

[18] = biological target: T18, panel of ninety-seven kinases (Homo sapiens, UniProt P36896); conditions: ACVR1B; read-out: % Ctrl @ 3 μM
T18 construct: purchased DiscoverX; host or cells: T7 phage in E. coli (BL21-derived) for most kinases; HEK-293 for the rest
T18 sequence (P36896 24-505): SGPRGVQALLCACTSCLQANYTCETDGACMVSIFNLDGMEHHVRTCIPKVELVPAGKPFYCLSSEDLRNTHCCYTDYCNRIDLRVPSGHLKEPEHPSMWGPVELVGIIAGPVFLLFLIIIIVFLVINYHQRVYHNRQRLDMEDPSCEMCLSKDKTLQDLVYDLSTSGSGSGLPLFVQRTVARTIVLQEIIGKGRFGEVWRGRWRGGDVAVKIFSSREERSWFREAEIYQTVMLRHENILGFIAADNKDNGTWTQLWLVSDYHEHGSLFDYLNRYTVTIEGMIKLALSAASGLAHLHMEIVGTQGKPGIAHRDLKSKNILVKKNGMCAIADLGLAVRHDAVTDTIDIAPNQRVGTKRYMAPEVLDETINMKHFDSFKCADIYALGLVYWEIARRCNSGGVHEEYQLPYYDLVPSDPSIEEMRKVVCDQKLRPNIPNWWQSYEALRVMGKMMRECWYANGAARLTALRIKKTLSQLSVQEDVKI
Experimental: as §1

[19] = biological target: T19, panel of ninety-seven kinases (Homo sapiens, UniProt Q05397); conditions: PTK2; read-out: % Ctrl @ 3 μM
T19 construct: purchased DiscoverX; host or cells: T7 phage in E. coli (BL21-derived) for most kinases; HEK-293 for the rest
Experimental: as §1

[20] = biological target: T20, panel of ninety-seven kinases (Homo sapiens, UniProt Q9H4B4); conditions: PLK3; read-out: % Ctrl @ 3 μM
T20 construct: purchased DiscoverX; host or cells: T7 phage in E. coli (BL21-derived) for most kinases; HEK-293 for the rest
Experimental: as §1

[21] = biological target: T21, panel of ninety-seven kinases (Homo sapiens, UniProt P48730); conditions: CSNK1D; read-out: % Ctrl @ 3 μM
T21 construct: purchased DiscoverX; host or cells: T7 phage in E. coli (BL21-derived) for most kinases; HEK-293 for the rest
T21 sequence (P48730 whole entry): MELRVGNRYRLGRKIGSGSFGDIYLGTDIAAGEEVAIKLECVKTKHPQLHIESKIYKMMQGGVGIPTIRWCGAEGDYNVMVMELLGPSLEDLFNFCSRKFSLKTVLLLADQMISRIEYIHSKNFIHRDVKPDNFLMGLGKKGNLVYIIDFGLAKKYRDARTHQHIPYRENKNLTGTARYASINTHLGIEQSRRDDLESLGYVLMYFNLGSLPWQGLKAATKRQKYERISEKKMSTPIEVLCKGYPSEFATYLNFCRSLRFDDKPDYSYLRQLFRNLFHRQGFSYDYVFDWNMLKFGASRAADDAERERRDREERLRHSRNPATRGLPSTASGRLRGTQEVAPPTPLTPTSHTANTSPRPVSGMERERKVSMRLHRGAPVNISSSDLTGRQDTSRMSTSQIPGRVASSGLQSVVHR
Experimental: as §1

T1 sequence (Q8NI60 163-647): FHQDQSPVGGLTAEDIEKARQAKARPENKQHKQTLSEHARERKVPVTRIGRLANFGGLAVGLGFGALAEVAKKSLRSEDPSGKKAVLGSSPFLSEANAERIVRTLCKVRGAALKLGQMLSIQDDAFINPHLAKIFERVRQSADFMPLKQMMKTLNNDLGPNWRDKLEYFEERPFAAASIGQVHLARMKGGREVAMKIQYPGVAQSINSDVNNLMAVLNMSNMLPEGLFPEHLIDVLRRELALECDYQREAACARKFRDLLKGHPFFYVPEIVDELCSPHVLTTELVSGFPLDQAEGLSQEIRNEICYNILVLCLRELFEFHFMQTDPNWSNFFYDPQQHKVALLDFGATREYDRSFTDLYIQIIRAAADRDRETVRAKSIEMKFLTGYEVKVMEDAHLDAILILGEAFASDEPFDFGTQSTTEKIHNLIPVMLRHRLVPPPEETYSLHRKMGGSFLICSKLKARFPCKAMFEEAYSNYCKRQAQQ

## CN(C)CCNC(=O)c1ccc(-c2ccc(-c3ccc(Cl)cc3)n2-c2ccccc2C(F)(F)F)cc1 (single isomer, unassigned) [Atropisomer A-2, 4-[5-(4-chlorophenyl)-1-[2-(trifluoromethyl)phenyl]pyrrol-2-yl]-N-[2-(dimethylamino)ethyl]benzamide]
[1]
  percent of control kinase binding to immobilized ligand at 3 µM: 63%
[2]
  percent of control kinase binding to immobilized ligand at 3 µM: 100%
[3]
  percent of control kinase binding to immobilized ligand at 3 µM: 96%
[4]
  percent of control kinase binding to immobilized ligand at 3 µM: 100%
[5]
  percent of control kinase binding to immobilized ligand at 3 µM: 100%
[6]
  percent of control kinase binding to immobilized ligand at 3 µM: 84%
[7]
  percent of control kinase binding to immobilized ligand at 3 µM: 87%
[8]
  percent of control kinase binding to immobilized ligand at 3 µM: 92%
[9]
  percent of control kinase binding to immobilized ligand at 3 µM: 100%
[10]
  percent of control kinase binding to immobilized ligand at 3 µM: 100%
[11]
  percent of control kinase binding to immobilized ligand at 3 µM: 95%
[12]
  percent of control kinase binding to immobilized ligand at 3 µM: 92%
[13]
  percent of control kinase binding to immobilized ligand at 3 µM: 100%
[14]
  percent of control kinase binding to immobilized ligand at 3 µM: 84%
[15]
  percent of control kinase binding to immobilized ligand at 3 µM: 71%
[16]
  percent of control kinase binding to immobilized ligand at 3 µM: 88%
[17]
  percent of control kinase binding to immobilized ligand at 3 µM: 100%
[18]
  percent of control kinase binding to immobilized ligand at 3 µM: 96%
[19]
  percent of control kinase binding to immobilized ligand at 3 µM: 98%
[20]
  percent of control kinase binding to immobilized ligand at 3 µM: 87%
[21]
  percent of control kinase binding to immobilized ligand at 3 µM: 91%

From patent US20220348565A1, “PHARMACEUTICAL COMPOUNDS” (SENTINEL ONCOLOGY LIMITED, priority 2019, published 2022)
